Results: ChEMBL document CHEMBL1201862, “PubChem BioAssay data set” (2004)
Calls of active or inactive are those of the source.

Key:
[1] = C. albicans growth with fluconazole, confirmation, fluorescence, retest (AID 2467); format: functional, cell-based
[2] = NIH-3T3 fibroblast cytotoxicity, dose response, cytotoxicity control, cell-based, fluorescence, Alamar Blue, secondary assay (AID 2327); format: functional;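 note: NIH-3T3 mouse fibroblasts cultured with fluconazole at 8 µg/mL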
CAAX prenyl protease 2 [3] = molecular target: T1, CAAX prenyl protease 2 (Homo sapiens, UniProt Q9Y256); test: human Rce1 protease inhibitors, dose response, biochemical, yeast membranes, quenched-peptide fluorescence, cherry-pick (AID 588849)
T1 sequence (Q9Y256 whole entry): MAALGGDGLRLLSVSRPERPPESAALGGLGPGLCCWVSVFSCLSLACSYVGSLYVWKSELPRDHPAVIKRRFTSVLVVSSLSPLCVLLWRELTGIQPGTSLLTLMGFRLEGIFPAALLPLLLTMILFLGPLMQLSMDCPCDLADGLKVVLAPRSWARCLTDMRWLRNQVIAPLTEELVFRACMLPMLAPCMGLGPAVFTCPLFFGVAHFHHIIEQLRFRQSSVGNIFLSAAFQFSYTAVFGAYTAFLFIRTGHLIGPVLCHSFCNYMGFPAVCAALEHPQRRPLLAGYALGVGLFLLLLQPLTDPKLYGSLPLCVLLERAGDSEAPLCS

[4] = molecular target: T2, Ubiquitin-conjugating enzyme E2 N (Homo sapiens, UniProt P61088); format: functional
T2 sequence (P61088 whole entry): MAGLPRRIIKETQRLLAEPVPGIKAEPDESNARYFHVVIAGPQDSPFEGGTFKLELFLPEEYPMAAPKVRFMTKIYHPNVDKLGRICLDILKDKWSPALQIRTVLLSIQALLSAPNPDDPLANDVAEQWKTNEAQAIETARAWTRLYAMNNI

CAAX prenyl protease 2 [5] = molecular target: T3, CAAX prenyl protease 2 (Saccharomyces cerevisiae S288c, UniProt Q03530); format: biochemical
T3 sequence (Q03530 whole entry): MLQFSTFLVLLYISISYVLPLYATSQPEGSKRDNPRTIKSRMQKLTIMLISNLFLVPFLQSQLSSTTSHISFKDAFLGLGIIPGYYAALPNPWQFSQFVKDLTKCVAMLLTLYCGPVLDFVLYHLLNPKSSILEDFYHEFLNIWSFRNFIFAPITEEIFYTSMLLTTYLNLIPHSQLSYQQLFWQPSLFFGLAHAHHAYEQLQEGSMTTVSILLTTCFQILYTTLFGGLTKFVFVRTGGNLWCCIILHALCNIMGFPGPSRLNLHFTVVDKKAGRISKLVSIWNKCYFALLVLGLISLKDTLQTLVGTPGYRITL

[6] = molecular target: Transitional endoplasmic reticulum ATPase (Homo sapiens, UniProt P55072, C522A); test: C522A mutant p97 ATPase inhibitors, dose response, counter-screen for p97 inhibitor project, biochemical, luminescence (AID 1544)
Protein RecA = molecular target: T4, Protein RecA (Mycobacterium tuberculosis, UniProt P9WHJ3); test: Fluorescence Cell-Free Homogeneous Dose Retest to Identify Inhibitors of RecA-Intein Splicing Activity. [Related pubchem assays (depositor defined):AID2097, AID2223, AID489010, AID492950]; format: functional
T4 sequence (P9WHJ3 whole entry): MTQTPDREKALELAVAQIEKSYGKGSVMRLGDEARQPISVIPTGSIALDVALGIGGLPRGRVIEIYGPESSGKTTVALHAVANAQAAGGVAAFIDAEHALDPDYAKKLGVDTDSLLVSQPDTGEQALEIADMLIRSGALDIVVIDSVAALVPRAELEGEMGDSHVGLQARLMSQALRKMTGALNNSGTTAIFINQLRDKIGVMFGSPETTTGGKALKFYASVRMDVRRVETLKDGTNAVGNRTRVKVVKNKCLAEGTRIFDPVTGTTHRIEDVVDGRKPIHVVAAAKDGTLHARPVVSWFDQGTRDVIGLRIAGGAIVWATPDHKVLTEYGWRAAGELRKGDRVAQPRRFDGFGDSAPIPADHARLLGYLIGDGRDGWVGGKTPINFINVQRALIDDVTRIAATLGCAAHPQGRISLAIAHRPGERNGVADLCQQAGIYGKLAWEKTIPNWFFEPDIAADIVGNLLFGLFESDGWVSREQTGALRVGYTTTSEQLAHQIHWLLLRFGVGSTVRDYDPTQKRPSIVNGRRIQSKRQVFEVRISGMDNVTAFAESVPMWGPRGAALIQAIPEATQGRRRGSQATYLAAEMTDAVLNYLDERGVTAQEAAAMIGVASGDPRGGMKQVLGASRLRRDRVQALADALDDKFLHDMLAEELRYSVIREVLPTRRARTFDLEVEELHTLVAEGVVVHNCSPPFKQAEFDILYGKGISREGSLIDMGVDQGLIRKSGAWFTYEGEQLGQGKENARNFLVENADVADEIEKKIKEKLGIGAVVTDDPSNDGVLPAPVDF

[7] = molecular target: Transitional endoplasmic reticulum ATPase (Homo sapiens, UniProt P55072); test: p97 ATPase inhibitors, dose response, biochemical (AID 1534)
Trypsin = Trypsin (Sus scrofa, UniProt P00761); test: porcine trypsin inhibitors, dose response, selectivity assay for Rce1 protease inhibitor project, biochemical, quenched peptide fluorescence, cherry-pick (AID 488789)
Sequence of Trypsin (P00761 whole entry): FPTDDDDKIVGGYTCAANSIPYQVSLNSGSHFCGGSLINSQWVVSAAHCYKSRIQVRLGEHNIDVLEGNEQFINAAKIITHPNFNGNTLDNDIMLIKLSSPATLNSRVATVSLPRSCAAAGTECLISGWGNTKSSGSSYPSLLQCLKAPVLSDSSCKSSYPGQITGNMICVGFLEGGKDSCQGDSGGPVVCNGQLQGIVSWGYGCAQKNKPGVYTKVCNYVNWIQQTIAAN

Bcl-2-related protein A1 = molecular target: T5, Bcl-2-related protein A1 (Mus musculus, UniProt Q07440); format: functional;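 note: confirmatory dose–response counterscreen on Bfl-1, used to check hits from a UBC13 polyubiquitin inhibitor campaign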
T5 sequence (Q07440 whole entry): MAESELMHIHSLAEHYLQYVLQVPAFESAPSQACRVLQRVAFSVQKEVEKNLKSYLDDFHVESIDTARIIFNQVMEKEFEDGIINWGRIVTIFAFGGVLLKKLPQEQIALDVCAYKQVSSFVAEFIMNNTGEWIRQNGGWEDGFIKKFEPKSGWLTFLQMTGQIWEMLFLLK

[8] = molecular target: T6, Replicative DNA helicase DnaB (Mycobacterium tuberculosis, UniProt P9WMR3); test: DnaB intein splicing inhibitors, dose response, biochemical, cell-free fluorescence (AID 449749); format: functional
T6 sequence (P9WMR3 whole entry): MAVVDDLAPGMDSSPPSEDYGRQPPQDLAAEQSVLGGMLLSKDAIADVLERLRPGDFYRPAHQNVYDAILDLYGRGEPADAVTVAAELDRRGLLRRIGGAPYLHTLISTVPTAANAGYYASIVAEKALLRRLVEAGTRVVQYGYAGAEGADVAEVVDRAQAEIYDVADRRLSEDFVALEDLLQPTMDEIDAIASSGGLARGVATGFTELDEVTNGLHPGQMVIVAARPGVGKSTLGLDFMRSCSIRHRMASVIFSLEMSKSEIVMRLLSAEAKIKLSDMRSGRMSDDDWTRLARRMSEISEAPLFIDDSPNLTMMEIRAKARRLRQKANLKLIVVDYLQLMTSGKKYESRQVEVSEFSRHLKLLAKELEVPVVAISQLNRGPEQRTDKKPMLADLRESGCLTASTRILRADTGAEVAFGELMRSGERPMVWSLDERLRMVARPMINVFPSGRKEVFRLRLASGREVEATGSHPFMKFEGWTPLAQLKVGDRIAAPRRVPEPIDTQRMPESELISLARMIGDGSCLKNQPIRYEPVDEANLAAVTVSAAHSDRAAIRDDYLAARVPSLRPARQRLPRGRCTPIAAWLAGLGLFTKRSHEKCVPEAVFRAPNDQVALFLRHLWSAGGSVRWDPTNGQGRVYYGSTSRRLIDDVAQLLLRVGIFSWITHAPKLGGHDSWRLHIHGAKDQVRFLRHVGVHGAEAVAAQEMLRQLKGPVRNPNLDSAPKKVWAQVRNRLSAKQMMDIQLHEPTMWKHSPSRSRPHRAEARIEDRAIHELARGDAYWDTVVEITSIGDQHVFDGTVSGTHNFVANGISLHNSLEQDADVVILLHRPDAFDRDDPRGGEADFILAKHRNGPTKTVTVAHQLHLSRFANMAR

INS1 = test: beta cell apoptosis inhibitors, cytokine rescue, dose response, luminescence, retest (AID 449756); format: functional, cell-based; settings: Rattus norvegicus;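 note: cell death triggered by IL-1 beta plus TNF-alpha plus IFN-gamma mixture; protective hits raise ATP signal compared with cytokine alone wells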
[9] = molecular target: T2, Ubiquitin-conjugating enzyme E2 N; format: functional; remark: listed apart in the source
[10] = molecular target: Cyclin-dependent kinase 5/CDK5 activator 1 (Homo sapiens, UniProt Q00535); test: CDK5/p35 kinase inhibitors, dose response, biochemical, cherry-picked samples, set 2 (AID 504545)
Sequence of Cyclin-dependent kinase 5/CDK5 activator 1 (Q00535 whole entry): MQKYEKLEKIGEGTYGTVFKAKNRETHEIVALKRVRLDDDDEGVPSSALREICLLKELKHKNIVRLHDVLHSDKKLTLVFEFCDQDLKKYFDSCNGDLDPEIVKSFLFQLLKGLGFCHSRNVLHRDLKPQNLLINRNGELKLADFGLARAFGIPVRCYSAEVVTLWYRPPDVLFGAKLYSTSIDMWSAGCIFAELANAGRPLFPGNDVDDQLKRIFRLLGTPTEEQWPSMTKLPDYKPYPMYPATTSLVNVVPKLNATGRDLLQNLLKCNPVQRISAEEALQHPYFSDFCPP
Sequence of Cyclin-dependent kinase 5/CDK5 activator 1 (Q15078 whole entry, further chain): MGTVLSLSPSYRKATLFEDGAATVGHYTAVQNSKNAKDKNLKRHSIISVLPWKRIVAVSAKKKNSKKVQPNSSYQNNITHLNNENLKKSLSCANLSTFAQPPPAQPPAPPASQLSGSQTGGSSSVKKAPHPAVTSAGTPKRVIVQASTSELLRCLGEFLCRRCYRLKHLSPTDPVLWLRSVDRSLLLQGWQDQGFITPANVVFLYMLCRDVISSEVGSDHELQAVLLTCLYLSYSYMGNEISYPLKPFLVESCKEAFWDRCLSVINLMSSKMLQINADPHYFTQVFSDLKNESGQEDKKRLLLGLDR

Bcl-2-like protein 10 = Bcl-2-like protein 10 (Homo sapiens, UniProt Q9HD36); test: displacers of TR3 peptide from Bcl-B, primary screen, selectivity assay for Bfl-1 inhibitor project, biochemical, fluorescence polarization, FITC-TR3 peptide (AID 748);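 note: fluorescence polarization from a fluorescein-labelled TR3 peptide binding purified Bcl-B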
[11] = molecular target: T7, Heat shock factor protein 1 (Mus musculus, UniProt P38532); test: inhibition of MG132-induced HSE-luciferase signal, confirmation, cell-based, NIH3T3, luminescence, dose retest (AID 2382); format: functional;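 note: NIH3T3 fibroblasts with HSF1-driven luciferase reporter stressed by proteasome inhibitor MG132; luminescence from HSF1-driven luciferase expression after 8 hours of MG132 stress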
T7 sequence (P38532 whole entry): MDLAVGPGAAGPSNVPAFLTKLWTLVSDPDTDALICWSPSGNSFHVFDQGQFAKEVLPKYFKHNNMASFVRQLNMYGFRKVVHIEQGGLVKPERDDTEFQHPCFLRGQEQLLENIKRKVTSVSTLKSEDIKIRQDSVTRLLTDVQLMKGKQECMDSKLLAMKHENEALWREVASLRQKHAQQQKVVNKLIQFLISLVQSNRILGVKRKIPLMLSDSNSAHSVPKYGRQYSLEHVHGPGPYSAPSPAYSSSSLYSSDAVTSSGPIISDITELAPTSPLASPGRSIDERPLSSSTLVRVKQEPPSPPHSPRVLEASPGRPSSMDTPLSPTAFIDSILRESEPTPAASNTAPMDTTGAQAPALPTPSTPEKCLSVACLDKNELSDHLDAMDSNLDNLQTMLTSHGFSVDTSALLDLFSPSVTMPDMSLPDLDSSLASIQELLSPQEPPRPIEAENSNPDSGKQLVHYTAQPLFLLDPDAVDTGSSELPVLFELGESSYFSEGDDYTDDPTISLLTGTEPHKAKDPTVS

[12] = molecular target: Likely tRNA 2'-phosphotransferase (Candida albicans (strain SC5314 / ATCC MYA-2876) (Yeast), UniProt Q5A7N4); test: TPT1 tRNA phosphotransferase inhibitors, dose response, biochemical, fluorescence polarization (AID 2160)
Sequence of Likely tRNA 2'-phosphotransferase (Q5A7N4 whole entry): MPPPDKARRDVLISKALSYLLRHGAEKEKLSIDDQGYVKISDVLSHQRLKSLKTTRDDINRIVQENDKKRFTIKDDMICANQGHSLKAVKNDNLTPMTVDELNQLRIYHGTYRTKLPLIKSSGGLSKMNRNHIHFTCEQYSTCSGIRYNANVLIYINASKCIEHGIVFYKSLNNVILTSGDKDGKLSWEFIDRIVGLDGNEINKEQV

[13] = molecular target: Guanyl-specific ribonuclease T1 (Aspergillus oryzae (strain ATCC 42149 / RIB 40), UniProt P00651); test: RNase T1 inhibitors, dose response, counter-screen for TPT1 inhibitor project, biochemical, fluorescence polarization, 1536-well (AID 2167)
Sequence of Guanyl-specific ribonuclease T1 (P00651 whole entry): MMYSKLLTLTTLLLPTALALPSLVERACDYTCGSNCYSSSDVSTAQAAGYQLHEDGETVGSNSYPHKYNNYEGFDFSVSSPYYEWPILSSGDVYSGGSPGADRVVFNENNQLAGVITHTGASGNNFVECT

[14] = molecular target: Voltage-gated N-type calcium channel alpha-1B subunit/Amyloid beta A4 precursor protein-binding family A member 1 (Homo sapiens, UniProt Q00975+Q02410); test: disruptors of Mint-PDZ/N-type channel peptide interaction – biochemical, HTRF, set 2, SAR follow-up (AID 434980); format: functional
Sequence of Voltage-gated N-type calcium channel alpha-1B subunit/Amyloid beta A4 precursor protein-binding family A member 1 (Q00975 whole entry): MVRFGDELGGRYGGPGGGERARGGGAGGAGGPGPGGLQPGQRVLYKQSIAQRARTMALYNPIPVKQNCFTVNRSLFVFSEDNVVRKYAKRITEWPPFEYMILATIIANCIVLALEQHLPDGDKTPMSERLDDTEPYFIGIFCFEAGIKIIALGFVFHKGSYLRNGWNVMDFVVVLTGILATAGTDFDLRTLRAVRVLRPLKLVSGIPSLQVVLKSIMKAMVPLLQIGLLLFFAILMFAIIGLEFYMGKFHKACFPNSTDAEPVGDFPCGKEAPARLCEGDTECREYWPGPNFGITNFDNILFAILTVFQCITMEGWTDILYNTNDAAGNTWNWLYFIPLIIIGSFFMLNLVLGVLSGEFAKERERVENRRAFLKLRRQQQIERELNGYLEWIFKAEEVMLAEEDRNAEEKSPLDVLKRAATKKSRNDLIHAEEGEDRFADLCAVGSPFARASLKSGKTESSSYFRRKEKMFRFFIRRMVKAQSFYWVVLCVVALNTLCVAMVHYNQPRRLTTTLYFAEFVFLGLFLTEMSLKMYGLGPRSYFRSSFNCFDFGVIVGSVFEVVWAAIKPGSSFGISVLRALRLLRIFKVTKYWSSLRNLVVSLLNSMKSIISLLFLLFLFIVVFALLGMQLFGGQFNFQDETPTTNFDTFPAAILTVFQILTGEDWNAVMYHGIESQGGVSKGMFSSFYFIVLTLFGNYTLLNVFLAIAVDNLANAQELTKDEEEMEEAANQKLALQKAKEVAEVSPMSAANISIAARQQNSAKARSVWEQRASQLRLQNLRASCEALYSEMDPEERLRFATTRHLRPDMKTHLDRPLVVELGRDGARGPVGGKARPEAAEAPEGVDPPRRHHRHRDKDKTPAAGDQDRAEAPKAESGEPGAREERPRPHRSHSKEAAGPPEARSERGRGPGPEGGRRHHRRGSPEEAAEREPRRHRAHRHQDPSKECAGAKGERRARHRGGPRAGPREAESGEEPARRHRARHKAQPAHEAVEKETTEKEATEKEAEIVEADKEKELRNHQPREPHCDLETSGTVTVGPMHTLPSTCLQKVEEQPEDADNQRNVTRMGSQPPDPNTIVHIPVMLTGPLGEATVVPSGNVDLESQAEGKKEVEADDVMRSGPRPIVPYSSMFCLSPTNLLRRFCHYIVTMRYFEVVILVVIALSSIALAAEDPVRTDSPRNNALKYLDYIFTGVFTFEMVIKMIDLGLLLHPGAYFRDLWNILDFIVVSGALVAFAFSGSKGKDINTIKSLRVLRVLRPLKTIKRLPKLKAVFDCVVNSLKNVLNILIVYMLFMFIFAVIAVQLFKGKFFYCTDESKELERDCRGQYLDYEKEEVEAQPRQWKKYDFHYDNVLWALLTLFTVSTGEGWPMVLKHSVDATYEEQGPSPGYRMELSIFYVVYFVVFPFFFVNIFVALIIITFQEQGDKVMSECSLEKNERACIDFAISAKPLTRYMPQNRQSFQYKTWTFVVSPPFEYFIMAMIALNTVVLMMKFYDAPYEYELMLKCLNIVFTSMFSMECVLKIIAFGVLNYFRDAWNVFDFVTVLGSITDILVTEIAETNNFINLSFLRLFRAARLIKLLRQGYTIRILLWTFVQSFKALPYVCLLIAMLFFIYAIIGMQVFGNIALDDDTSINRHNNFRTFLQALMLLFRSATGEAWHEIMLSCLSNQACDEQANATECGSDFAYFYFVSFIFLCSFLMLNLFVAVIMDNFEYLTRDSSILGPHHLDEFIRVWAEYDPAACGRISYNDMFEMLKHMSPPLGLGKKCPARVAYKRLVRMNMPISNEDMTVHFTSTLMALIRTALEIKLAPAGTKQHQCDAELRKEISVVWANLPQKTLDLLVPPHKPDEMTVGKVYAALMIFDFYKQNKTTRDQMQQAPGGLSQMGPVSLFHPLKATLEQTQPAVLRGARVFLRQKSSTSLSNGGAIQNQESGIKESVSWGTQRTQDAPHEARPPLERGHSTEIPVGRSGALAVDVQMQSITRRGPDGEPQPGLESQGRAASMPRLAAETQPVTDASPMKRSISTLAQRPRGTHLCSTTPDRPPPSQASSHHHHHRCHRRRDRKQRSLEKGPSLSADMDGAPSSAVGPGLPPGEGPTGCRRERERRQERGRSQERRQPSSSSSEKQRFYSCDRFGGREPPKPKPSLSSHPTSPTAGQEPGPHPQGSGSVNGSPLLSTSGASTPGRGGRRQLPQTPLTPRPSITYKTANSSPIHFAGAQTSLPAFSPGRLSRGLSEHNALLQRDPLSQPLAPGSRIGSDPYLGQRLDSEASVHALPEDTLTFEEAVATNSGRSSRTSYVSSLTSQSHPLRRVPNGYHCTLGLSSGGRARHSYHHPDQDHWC
Sequence of Voltage-gated N-type calcium channel alpha-1B subunit/Amyloid beta A4 precursor protein-binding family A member 1 (Q02410 whole entry): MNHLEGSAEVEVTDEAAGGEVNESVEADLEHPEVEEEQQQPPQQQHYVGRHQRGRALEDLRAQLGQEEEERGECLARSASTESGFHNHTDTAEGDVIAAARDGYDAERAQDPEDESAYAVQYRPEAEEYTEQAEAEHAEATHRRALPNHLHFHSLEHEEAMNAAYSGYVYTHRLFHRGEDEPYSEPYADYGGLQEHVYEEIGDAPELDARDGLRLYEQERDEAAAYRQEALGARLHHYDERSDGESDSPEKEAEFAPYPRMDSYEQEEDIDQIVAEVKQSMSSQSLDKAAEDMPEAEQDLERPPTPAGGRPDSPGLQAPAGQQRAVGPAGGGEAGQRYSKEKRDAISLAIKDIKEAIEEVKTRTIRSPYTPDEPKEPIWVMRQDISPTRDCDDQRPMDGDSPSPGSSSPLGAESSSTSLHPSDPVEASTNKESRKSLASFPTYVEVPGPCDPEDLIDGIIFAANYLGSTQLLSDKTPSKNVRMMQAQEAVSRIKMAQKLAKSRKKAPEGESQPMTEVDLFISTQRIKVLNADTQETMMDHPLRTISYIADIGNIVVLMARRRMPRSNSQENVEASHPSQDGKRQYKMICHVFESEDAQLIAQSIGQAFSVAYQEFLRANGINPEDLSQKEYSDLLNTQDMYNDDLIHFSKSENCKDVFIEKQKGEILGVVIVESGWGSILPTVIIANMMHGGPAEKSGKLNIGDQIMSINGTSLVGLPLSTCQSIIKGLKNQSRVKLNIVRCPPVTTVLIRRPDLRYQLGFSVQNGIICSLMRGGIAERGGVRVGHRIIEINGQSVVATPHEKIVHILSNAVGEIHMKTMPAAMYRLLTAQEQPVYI

[15] = molecular target: Lysosomal acid glucosylceramidase (Homo sapiens, UniProt P04062); test: Dose response cell-based high throughput screening assay to identify enhancers of beta-glucosidase activity. [Related pubchem assays: 784 ]; format: functional
Sequence of Lysosomal acid glucosylceramidase (P04062 whole entry): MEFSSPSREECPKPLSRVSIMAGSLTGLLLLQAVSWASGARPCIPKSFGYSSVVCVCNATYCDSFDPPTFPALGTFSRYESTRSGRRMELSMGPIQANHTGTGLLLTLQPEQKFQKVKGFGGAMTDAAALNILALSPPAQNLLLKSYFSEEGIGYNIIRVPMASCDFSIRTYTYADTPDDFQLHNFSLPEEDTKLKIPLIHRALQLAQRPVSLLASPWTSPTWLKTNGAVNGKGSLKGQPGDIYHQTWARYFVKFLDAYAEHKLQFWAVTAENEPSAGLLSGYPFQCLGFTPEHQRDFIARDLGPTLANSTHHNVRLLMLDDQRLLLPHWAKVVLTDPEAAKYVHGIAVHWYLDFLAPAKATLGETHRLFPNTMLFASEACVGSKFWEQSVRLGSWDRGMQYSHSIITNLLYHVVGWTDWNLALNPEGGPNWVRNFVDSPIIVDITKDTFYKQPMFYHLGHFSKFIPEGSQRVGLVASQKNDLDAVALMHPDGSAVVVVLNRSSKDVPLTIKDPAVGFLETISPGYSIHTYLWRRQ

[16] = HEp-2 cell cytotoxicity, dose response, cytotoxicity control for RSV inhibitor project, HTS (AID 2410); format: functional; settings: human respiratory syncytial virus
Streptokinase A = molecular target: T8, Streptokinase A (Streptococcus pyogenes serotype M1, UniProt P10520); test: S. pyogenes streptokinase expression inhibitors, potency, dose response, plasminogen activation absorbance, OD405 (AID 1914); format: functional, Streptococcus pyogenes M1 GAS;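 note: secreted streptokinase activity via plasminogen activation per viability signal from cell pellet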
T8 sequence (P10520 whole entry): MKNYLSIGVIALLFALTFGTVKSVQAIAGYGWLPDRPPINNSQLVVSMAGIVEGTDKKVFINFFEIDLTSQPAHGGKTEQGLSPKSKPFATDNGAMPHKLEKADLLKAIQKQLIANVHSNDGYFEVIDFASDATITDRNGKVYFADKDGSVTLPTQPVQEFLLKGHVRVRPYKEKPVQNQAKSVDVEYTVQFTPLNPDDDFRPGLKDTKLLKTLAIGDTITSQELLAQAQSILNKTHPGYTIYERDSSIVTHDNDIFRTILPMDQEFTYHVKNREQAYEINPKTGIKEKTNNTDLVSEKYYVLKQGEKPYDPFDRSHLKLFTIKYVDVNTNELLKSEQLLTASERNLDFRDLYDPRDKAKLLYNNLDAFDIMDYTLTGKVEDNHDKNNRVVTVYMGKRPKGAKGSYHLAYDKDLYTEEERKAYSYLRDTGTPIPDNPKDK

[17] = molecular target: G-protein coupled receptor 35 (Homo sapiens, UniProt Q9HC97); test: GPR35 antagonists blocking zaprinast-driven arrestin recruitment, primary screen, imaging, U2OS, beta-arrestin-GFP, zaprinast agonist (AID 2058); format: functional;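 note: antagonist potency meaning inhibition of agonist-induced arrestin redistribution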
Streptococcus = test: Group A Streptococcus viability loss, dose response, counter-screen for streptokinase expression inhibitor project, luminescence, BacTiterGlo (AID 1915); format: functional, organism-based;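 note: potency for reduction of bacterial viability or growth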
[18] = tested on: Streptococcus sp. 'group A'; test: growth inhibition of control SK(-) GAS strain, dose response, counter-screen for streptokinase expression inhibitor project, luminescence, kanamycin, BacTiterGlo, confirmation (AID 1900); format: functional, organism-based
[19] = blockers of SFLLRN-triggered platelet ATP secretion – cell-based, human platelets, luminescence, dry powder, dose response (AID 493100); format: functional

## c1ccc(CNc2nc(NCc3ccccc3)c3ccccc3n2)cc1
[1]
  EC50: > 38 µM (not active)
[2]
  EC50: > 150 µM (inconclusive)
CAAX prenyl protease 2 [3]
  AC50: 9.69 µM (active)
[4]
  IC50: 19.6 µM (active)
CAAX prenyl protease 2 [5]
  AC50: 39.5 µM (active)
[6]
  IC50: > 50 µM (not active)
Protein RecA
  EC50: 7.83 µM (active)
[7]
  IC50: > 50 µM (not active)
Trypsin
  AC50: 13.6 µM (active)
Bcl-2-related protein A1
  IC50: 12.4 µM (active)
[8]
  AC50: 6.13 µM (active)
INS1
  AC50: 7.6 µM (active)
[9]
  IC50: 11 µM (active)

## C=CCNC(=O)c1[nH]nc2c1CC(C(C)(C)CC)CC2 (stereo unspecified)
[10]
  AC50: 3.18 µM (active)

## COc1ccc(NC(=O)c2cc(CN3C(=O)c4ccccc4C3=O)ccc2OC)cn1
Bcl-2-like protein 10
  IC50: > 25 µM (inactive)
[11]
  EC50: > 195 µM (not active)

## Cc1ccc(OCCn2cccc2/C=C2/C(=O)NC(=O)N(Cc3ccco3)C2=O)cc1
[12]
  IC50: > 55.7 µM (not active)
[13]
  IC50: > 55.7 µM (not active)

## O=C(c1cc(-c2ccco2)nc2ccccc12)N1CCc2cccnc21
[14]
  IC50: > 56.8 µM (inactive)

## COc1ccc(OC)c(Nc2nc(-c3sc(N)nc3C)cs2)c1
[15]
  EC50: > 50 µM (not active)

## CCOc1ccc(/C=N/NC(=O)Cc2csc(Nc3cccc(C(F)(F)F)c3)n2)cc1
[16]
  CC50: 12.2 µM (active)
Streptokinase A
  EC50: 20.1 µM (active)
[17]
  IC50: 2.1 µM (active)
Streptococcus
  EC50: 20.2 µM (active)
[18]
  EC50: 8.02 µM (active)

## O=C(N/N=C/c1ccc(NC(=O)C(F)(F)F)cc1)C1CCCC1
[19]
  AC50: 22.3 µM (active)
